According to PubChem BioAssay (NCI):
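Five compound concentrations were applied to cells in 96-well plates for 48 hours; endpoints were derived by simple linear interpolation of the resulting dose-response curve. The concentration for 50% growth inhibition is given as GI50. TGI is the concentration that stops growth completely.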

Legend:
Test in all cases: growth of human tumour cells (NCI), 48 h
MOLT-4 leukemia = test system: MOLT-4 leukemia
T-47D breast = test system: T-47D breast
IGROV1 ovarian = test system: IGROV1 ovarian
HT29 colon = test system: HT29 colon
NCI-H460 lung = test system: NCI-H460 lung
SNB-75 CNS = test system: SNB-75 CNS
RXF 393 renal = test system: RXF 393 renal
NCI-H226 lung = test system: NCI-H226 lung
LOX IMVI melanoma = test system: LOX IMVI melanoma
SK-OV-3 ovarian = test system: SK-OV-3 ovarian
UO-31 renal = test system: UO-31 renal
SK-MEL-2 melanoma = test system: SK-MEL-2 melanoma
MDA-MB-231 breast = test system: MDA-MB-231 breast
SK-MEL-28 melanoma = test system: SK-MEL-28 melanoma
UACC-257 melanoma = test system: UACC-257 melanoma
RPMI-8226 leukemia = test system: RPMI-8226 leukemia
CAKI-1 renal = test system: CAKI-1 renal
OVCAR-8 ovarian = test system: OVCAR-8 ovarian
NCI-H522 lung = test system: NCI-H522 lung
HCT-116 colon = test system: HCT-116 colon
NCI-H23 lung = test system: NCI-H23 lung
A498 renal = test system: A498 renal
U251 CNS = test system: U251 CNS
M14 melanoma = test system: M14 melanoma
MDA-MB-435 = test system: MDA-MB-435
HL-60(TB) leukemia = test system: HL-60(TB) leukemia
OVCAR-5 ovarian = test system: OVCAR-5 ovarian
TK-10 renal = test system: TK-10 renal
HOP-92 NSCLC = test system: HOP-92 NSCLC
MALME-3M melanoma = test system: MALME-3M melanoma
CCRF-CEM leukemia = test system: CCRF-CEM leukemia
SNB-19 CNS = test system: SNB-19 CNS
OVCAR-4 ovarian = test system: OVCAR-4 ovarian
HCT-15 colon = test system: HCT-15 colon
UACC-62 melanoma = test system: UACC-62 melanoma
SN12C renal = test system: SN12C renal
MCF7 breast = test system: MCF7 breast
COLO 205 colon = test system: COLO 205 colon
SF-268 CNS = test system: SF-268 CNS
PC-3 prostate = test system: PC-3 prostate
KM12 colon = test system: KM12 colon
OVCAR-3 ovarian = test system: OVCAR-3 ovarian
HS 578T breast = test system: HS 578T breast
DU-145 prostate = test system: DU-145 prostate
NCI/ADR-RES ovarian = test system: NCI/ADR-RES ovarian
786-0 renal = test system: 786-0 renal
SW-620 colon = test system: SW-620 colon
EKVX NSCLC = test system: EKVX NSCLC
HOP-62 NSCLC = test system: HOP-62 NSCLC
SK-MEL-5 melanoma = test system: SK-MEL-5 melanoma
K-562 leukemia = test system: K-562 leukemia
BT-549 breast = test system: BT-549 breast
SF-539 CNS = test system: SF-539 CNS
HCC-2998 colon = test system: HCC-2998 colon
A549 NSCLC = test system: A549 NSCLC
ACHN renal = test system: ACHN renal
SF-295 CNS = test system: SF-295 CNS
SR leukemia = test system: SR leukemia

Clc1ccc(N2CCN(CCCN3CCN(c4cccc(Cl)c4)CC3)CC2)cc1
GI50 (MOLT-4 leukemia): 2010 nM | TGI (MOLT-4 leukemia): 17.4 µM | GI50 (T-47D breast): 1630 nM | TGI (T-47D breast): 14.3 µM | GI50 (IGROV1 ovarian): 8.89 µM | TGI (IGROV1 ovarian): 24.6 µM | GI50 (HT29 colon): 3.03 µM | TGI (HT29 colon): 13.5 µM | GI50 (NCI-H460 lung): 3.78 µM | TGI (NCI-H460 lung): 15.8 µM | GI50 (SNB-75 CNS): 2520 nM | TGI (SNB-75 CNS): 14.8 µM | GI50 (RXF 393 renal): 6.7 µM | TGI (RXF 393 renal): 22.4 µM | GI50 (NCI-H226 lung): 6.51 µM | TGI (NCI-H226 lung): 23.3 µM | GI50 (LOX IMVI melanoma): 2800 nM | TGI (LOX IMVI melanoma): 13.8 µM | GI50 (SK-OV-3 ovarian): 10.7 µM | TGI (SK-OV-3 ovarian): 23.2 µM | GI50 (UO-31 renal): 3.56 µM | TGI (UO-31 renal): 16.2 µM | GI50 (SK-MEL-2 melanoma): 14.3 µM | TGI (SK-MEL-2 melanoma): 31.5 µM | GI50 (MDA-MB-231 breast): 4.22 µM | TGI (MDA-MB-231 breast): 18.6 µM | GI50 (SK-MEL-28 melanoma): 2530 nM | TGI (SK-MEL-28 melanoma): 8.27 µM | GI50 (UACC-257 melanoma): 4.33 µM | TGI (UACC-257 melanoma): 16.3 µM | GI50 (RPMI-8226 leukemia): 1790 nM | TGI (RPMI-8226 leukemia): 7.84 µM | GI50 (CAKI-1 renal): 7.43 µM | TGI (CAKI-1 renal): 25.6 µM | GI50 (OVCAR-8 ovarian): 10.4 µM | TGI (OVCAR-8 ovarian): 28.1 µM | GI50 (NCI-H522 lung): 14.7 µM | TGI (NCI-H522 lung): 34 µM | GI50 (HCT-116 colon): 2450 nM | TGI (HCT-116 colon): 12.2 µM | GI50 (NCI-H23 lung): 3.33 µM | TGI (NCI-H23 lung): 17.8 µM | GI50 (A498 renal): 4.61 µM | TGI (A498 renal): 18.8 µM | GI50 (U251 CNS): 5.45 µM | TGI (U251 CNS): 20.1 µM | GI50 (M14 melanoma): 1570 nM | TGI (M14 melanoma): 3.21 µM | GI50 (MDA-MB-435): 3.36 µM | TGI (MDA-MB-435): 16.7 µM | GI50 (HL-60(TB) leukemia): 2330 nM | TGI (HL-60(TB) leukemia): 6.7 µM | GI50 (OVCAR-5 ovarian): 9.12 µM | TGI (OVCAR-5 ovarian): 29.6 µM | GI50 (TK-10 renal): 5.32 µM | TGI (TK-10 renal): 21.3 µM | GI50 (HOP-92 NSCLC): 813 nM | TGI (HOP-92 NSCLC): 11.4 µM | GI50 (MALME-3M melanoma): 2060 nM | TGI (MALME-3M melanoma): 6.15 µM | GI50 (CCRF-CEM leukemia): 3.8 µM | TGI (CCRF-CEM leukemia): 25.3 µM | GI50 (SNB-19 CNS): 11.3 µM | TGI (SNB-19 CNS): 24.7 µM | GI50 (OVCAR-4 ovarian): 5.77 µM | TGI (OVCAR-4 ovarian): 20.7 µM | GI50 (HCT-15 colon): 4.9 µM | TGI (HCT-15 colon): 22.4 µM | GI50 (UACC-62 melanoma): 2860 nM | TGI (UACC-62 melanoma): 11.3 µM | GI50 (SN12C renal): 7.51 µM | TGI (SN12C renal): 21.6 µM | GI50 (MCF7 breast): 2920 nM | TGI (MCF7 breast): 12.2 µM | GI50 (COLO 205 colon): 1620 nM | TGI (COLO 205 colon): 3.35 µM | GI50 (SF-268 CNS): 7.77 µM | TGI (SF-268 CNS): 21.4 µM | GI50 (PC-3 prostate): 3.34 µM | TGI (PC-3 prostate): 16.4 µM | GI50 (KM12 colon): 3.45 µM | TGI (KM12 colon): 15.6 µM | GI50 (OVCAR-3 ovarian): 3.44 µM | TGI (OVCAR-3 ovarian): 15.3 µM | GI50 (HS 578T breast): 4.82 µM | TGI (HS 578T breast): 22 µM | GI50 (DU-145 prostate): 8.14 µM | TGI (DU-145 prostate): 21.4 µM | GI50 (NCI/ADR-RES ovarian): 4.6 µM | TGI (NCI/ADR-RES ovarian): 20.7 µM | GI50 (786-0 renal): 4.63 µM | TGI (786-0 renal): 18.5 µM | GI50 (SW-620 colon): 3.08 µM | TGI (SW-620 colon): 14 µM | GI50 (EKVX NSCLC): 4.5 µM | TGI (EKVX NSCLC): 35.9 µM | GI50 (HOP-62 NSCLC): 3.97 µM | TGI (HOP-62 NSCLC): 18.1 µM | GI50 (SK-MEL-5 melanoma): 1600 nM | TGI (SK-MEL-5 melanoma): 3.46 µM | GI50 (K-562 leukemia): 1450 nM | TGI (K-562 leukemia): 6.08 µM | GI50 (BT-549 breast): 3.72 µM | TGI (BT-549 breast): 15.6 µM | GI50 (SF-539 CNS): 3.21 µM | TGI (SF-539 CNS): 12.4 µM | GI50 (HCC-2998 colon): 2650 nM | TGI (HCC-2998 colon): 11.7 µM | GI50 (A549 NSCLC): 8.57 µM | TGI (A549 NSCLC): 28.4 µM | GI50 (ACHN renal): 7.77 µM | TGI (ACHN renal): 21.5 µM | GI50 (SF-295 CNS): 3.74 µM | TGI (SF-295 CNS): 19.1 µM

Cc1cc2cc3c(Cl)c(CCCl)c(C)nc3cc2c(Cl)c1CCCl
TGI (MOLT-4 leukemia): 44.7 µM | TGI (T-47D breast): 69.8 µM | TGI (IGROV1 ovarian): > 100 µM | TGI (HT29 colon): > 100 µM | TGI (NCI-H460 lung): 34.2 µM | TGI (SNB-75 CNS): > 100 µM | TGI (RXF 393 renal): 17.5 µM | TGI (NCI-H226 lung): 20.5 µM | TGI (LOX IMVI melanoma): 29.5 µM | TGI (UO-31 renal): 50.9 µM | TGI (SK-MEL-28 melanoma): 35.1 µM | TGI (UACC-257 melanoma): 34.8 µM | TGI (RPMI-8226 leukemia): 36.5 µM | TGI (OVCAR-8 ovarian): 94.5 µM | TGI (NCI-H522 lung): 37.7 µM | TGI (HCT-116 colon): 31.8 µM | TGI (NCI-H23 lung): 63.6 µM | TGI (SR leukemia): 32.9 µM | TGI (A498 renal): 48.4 µM | TGI (U251 CNS): 60 µM | TGI (MDA-MB-435): 30.8 µM | TGI (HL-60(TB) leukemia): 27.3 µM | TGI (TK-10 renal): > 100 µM | TGI (HOP-92 NSCLC): 35.4 µM | TGI (MALME-3M melanoma): 45.7 µM | TGI (CCRF-CEM leukemia): 48.9 µM | TGI (SNB-19 CNS): 85.9 µM | TGI (OVCAR-4 ovarian): 66.3 µM | TGI (HCT-15 colon): > 100 µM | TGI (UACC-62 melanoma): 34.4 µM | TGI (MCF7 breast): 56.7 µM | TGI (COLO 205 colon): 36.1 µM | TGI (SF-268 CNS): 30.9 µM | TGI (PC-3 prostate): 39.6 µM | TGI (KM12 colon): 46.4 µM | TGI (OVCAR-3 ovarian): 34.4 µM | TGI (HS 578T breast): 30.6 µM | TGI (DU-145 prostate): 80.3 µM | TGI (NCI/ADR-RES ovarian): 61.8 µM | TGI (786-0 renal): 78.6 µM | TGI (SW-620 colon): 76.8 µM | TGI (EKVX NSCLC): 42.3 µM | TGI (HOP-62 NSCLC): 27.8 µM | TGI (SK-MEL-5 melanoma): 26.6 µM | TGI (K-562 leukemia): 43.3 µM | TGI (BT-549 breast): 47.7 µM | TGI (SF-539 CNS): 30 µM | TGI (HCC-2998 colon): 39.7 µM | TGI (A549 NSCLC): 57.2 µM | TGI (ACHN renal): 75.5 µM | TGI (SF-295 CNS): 35.2 µM
